Data on 1 compound can be found in ChEMBL document CHEMBL5321262, “Antiviral Activity of Cannabidiolic Acid and Its Methyl Ester against SARS-CoV-2” (J Nat Prod, 2023).

Assay [1] has as its system SARS-CoV-2. Briefly: Antiviral activity against SARS-CoV-2 variant Omicron BA.3 infected African green monkey Vero E6 cells assessed as reduction in virus-induced cytopathic effect at 37.5 uM preincubated with virus for 1 hr followed by infection with cells and measured after 72 hrs by microscopic analysis. Type of assay: functional, organism-based. The conditions noted are these: Severe acute respiratory syndrome coronavirus 2, time 73.0 hrs. A general note: Cytopathic effects are the visible damage that an infection or toxin causes in cultured cells.

The test system of assay [2] is SARS-CoV-2. Briefly: Antiviral activity against SARS-CoV-2 variant Omicron BA.1 infected in African green monkey Vero E6 cells assessed as reduction in virus-induced cytopathic effect at 37.5 uM preincubated with virus for 1 hr followed by infection with cells and measured after 72 hrs by microscopic analysis. Type of assay: functional, organism-based. The conditions noted are these: Severe acute respiratory syndrome coronavirus 2, time 73.0 hrs.

Assay [3] deals with SARS-CoV-2. Kind of assay: Antiviral activity against SARS-CoV-2 variant Omicron BA.2 infected in African green monkey Vero E6 cells assessed as inhibition of virus titers of progeny virus in supernatant at 37.5 uM measured after 72 hrs by CPE assay relative to control. It is filed as functional. Conditions: Severe acute respiratory syndrome coronavirus 2, Omicron BA.2, Vero C1008.

Assay [4] relates to SARS-CoV-2. Briefly: Antiviral activity against SARS-CoV-2 variant Omicron BA.1 infected in African green monkey Vero E6 cells assessed as reduction in virus titers of progeny virus in supernatant measured after 72 hrs by CPE assay. It is filed as functional, organism-based. Conditions: Severe acute respiratory syndrome coronavirus 2, Omicron BA.1, Vero C1008, 72 h.
Assay [5] has as its system SARS-CoV-2. Kind of assay: Antiviral activity against SARS-CoV-2 variant Omicron BA.2 infected in African green monkey Vero E6 cells assessed as reduction in virus titers of progeny virus in supernatant measured after 72 hrs by CPE assay. Conditions: Severe acute respiratory syndrome coronavirus 2, Omicron BA.2, Vero C1008, 72 h. Type of assay: functional, organism-based.

In assay [6] the test system is SARS-CoV-2. Briefly: Antiviral activity against SARS-CoV-2 variant Omicron BA.3 infected in African green monkey Vero E6 cells assessed as inhibition of virus titers of progeny virus in supernatant at 37.5 uM measured after 72 hrs by CPE assay relative to control. Type of assay: functional. Conditions: Severe acute respiratory syndrome coronavirus 2, Omicron BA.3, Vero C1008.

For assay [7], the system named is SARS-CoV-2. Briefly: Antiviral activity against SARS-CoV-2 variant Omicron BA.3 infected in African green monkey Vero E6 cells assessed as reduction in viral replication at 37.5 uM measured at 72 hrs post-infection by qRT-PCR analysis. Conditions: Severe acute respiratory syndrome coronavirus 2. It is filed as functional, organism-based.
Assay [8] relates to SARS-CoV-2. Kind of assay: Antiviral activity against SARS-CoV-2 variant Omicron BA.5 infected in African green monkey Vero E6 cells assessed as reduction in virus titers of progeny virus in supernatant measured after 72 hrs by CPE assay. It is filed as functional, organism-based. The conditions noted are these: Severe acute respiratory syndrome coronavirus 2, Omicron BA.5, Vero C1008, 72 h.

In assay [9] the test system is SARS-CoV-2. Kind of assay: Antiviral activity against SARS-CoV-2 variant Delta infected in African green monkey Vero E6 cells assessed as inhibition of virus titers of progeny virus in supernatant at 37.5 uM measured after 72 hrs by CPE assay relative to control. Conditions: Severe acute respiratory syndrome coronavirus 2, Delta, Vero C1008. Type of assay: functional.

For assay [10], the system named is SARS-CoV-2. Briefly: Antiviral activity against SARS-CoV-2 variant Delta infected in African green monkey Vero E6 cells assessed as reduction in virus titers of progeny virus in supernatant measured after 72 hrs by CPE assay. It is filed as functional, organism-based. The conditions noted are these: Severe acute respiratory syndrome coronavirus 2, Delta, Vero C1008, 72 h.

In assay [11] the test system is SARS-CoV-2. Briefly: Antiviral activity against SARS-CoV-2 variant Omicron BA.1 infected in African green monkey Vero E6 cells assessed as inhibition of virus titers of progeny virus in supernatant at 37.5 uM measured after 72 hrs by CPE assay relative to control. It is filed as functional. The conditions noted are these: Severe acute respiratory syndrome coronavirus 2, Omicron BA.1, Vero C1008.

Assay [12] relates to SARS-CoV-2. Briefly: Antiviral activity against SARS-CoV-2 variant Omicron BA.4 infected in African green monkey Vero E6 cells assessed as reduction in viral replication at 37.5 uM measured at 72 hrs post-infection by qRT-PCR analysis. Conditions: Severe acute respiratory syndrome coronavirus 2. Type of assay: functional, organism-based. (In qPCR the cycle at which signal appears reflects the starting amount.)

The subject of assay [13] is SARS-CoV-2. Kind of assay: Antiviral activity against SARS-CoV-2 variant Omicron BA.5 infected African green monkey Vero E6 cells assessed as reduction in virus-induced cytopathic effect at 37.5 uM preincubated with virus for 1 hr followed by infection with cells and measured after 72 hrs by microscopic analysis. The conditions noted are these: Severe acute respiratory syndrome coronavirus 2, time 73.0 hrs. It is filed as functional, organism-based.

Assay [14] has as its system SARS-CoV-2. Kind of assay: Antiviral activity against SARS-CoV-2 variant Delta infected in African green monkey Vero E6 cells assessed as reduction in viral replication at 37.5 uM measured at 72 hrs post-infection by qRT-PCR analysis. It is filed as functional, organism-based. Conditions: Severe acute respiratory syndrome coronavirus 2.
Assay [15] deals with SARS-CoV-2. Briefly: Antiviral activity against SARS-CoV-2 variant Omicron BA.5 infected in African green monkey Vero E6 cells assessed as inhibition of virus titers of progeny virus in supernatant at 37.5 uM measured after 72 hrs by CPE assay relative to control. The conditions noted are these: Severe acute respiratory syndrome coronavirus 2, Omicron BA.5, Vero C1008. It is filed as functional.

The test system of assay [16] is SARS-CoV-2. Kind of assay: Antiviral activity against SARS-CoV-2 variant Delta infected in African green monkey Vero E6 cells assessed as reduction in virus-induced cytopathic effect at 37.5 uM preincubated with virus for 1 hr followed by infection with cells and measured after 72 hrs by microscopic analysis. Type of assay: functional, organism-based. Conditions: Severe acute respiratory syndrome coronavirus 2, time 73.0 hrs.

Assay [17] relates to SARS-CoV-2. Kind of assay: Antiviral activity against SARS-CoV-2 variant Omicron BA.4 infected in African green monkey Vero E6 cells assessed as reduction in virus titers of progeny virus in supernatant measured after 72 hrs by CPE assay. Type of assay: functional, organism-based. The conditions noted are these: Severe acute respiratory syndrome coronavirus 2, Omicron BA.4, Vero C1008, 72 h.

Assay [18] concerns SARS-CoV-2. Briefly: Antiviral activity against SARS-CoV-2 variant Omicron BA.4 infected African green monkey Vero E6 cells assessed as reduction in virus-induced cytopathic effect at 37.5 uM preincubated with virus for 1 hr followed by infection with cells and measured after 72 hrs by microscopic analysis. Conditions: Severe acute respiratory syndrome coronavirus 2, time 73.0 hrs. Type of assay: functional, organism-based.

Assay [19] concerns SARS-CoV-2. Kind of assay: Antiviral activity against SARS-CoV-2 variant Omicron BA.5 infected in African green monkey Vero E6 cells assessed as reduction in viral replication at 37.5 uM measured at 72 hrs post-infection by qRT-PCR analysis. Type of assay: functional, organism-based. The conditions noted are these: Severe acute respiratory syndrome coronavirus 2.
For assay [20], the system named is SARS-CoV-2. Briefly: Antiviral activity against SARS-CoV-2 variant Omicron BA.3 infected in African green monkey Vero E6 cells assessed as reduction in virus titers of progeny virus in supernatant measured after 72 hrs by CPE assay. Type of assay: functional, organism-based. The conditions noted are these: Severe acute respiratory syndrome coronavirus 2, Omicron BA.3, Vero C1008, 72 h.

In assay [21] the test system is SARS-CoV-2. Briefly: Antiviral activity against SARS-CoV-2 variant Omicron BA.2 infected in African green monkey Vero E6 cells assessed as reduction in viral replication at 37.5 uM measured at 72 hrs post-infection by qRT-PCR analysis. It is filed as functional, organism-based. Conditions: Severe acute respiratory syndrome coronavirus 2.
Assay [22] has as its system SARS-CoV-2. Kind of assay: Antiviral activity against SARS-CoV-2 variant Omicron BA.4 infected in African green monkey Vero E6 cells assessed as inhibition of virus titers of progeny virus in supernatant at 37.5 uM measured after 72 hrs by CPE assay relative to control. Type of assay: functional. The conditions noted are these: Severe acute respiratory syndrome coronavirus 2, Omicron BA.4, Vero C1008.

Assay [23] concerns SARS-CoV-2. Briefly: Antiviral activity against SARS-CoV-2 variant Omicron BA.2 infected in African green monkey Vero E6 cells assessed as reduction in virus-induced cytopathic effect at 37.5 uM preincubated with virus for 1 hr followed by infection with cells and measured after 72 hrs by microscopic analysis. The conditions noted are these: Severe acute respiratory syndrome coronavirus 2, time 73.0 hrs. Type of assay: functional, organism-based.

Assay [24] has as its system SARS-CoV-2. Kind of assay: Antiviral activity against SARS-CoV-2 variant Omicron BA.1 infected in African green monkey Vero E6 cells assessed as reduction in viral replication at 37.5 uM measured at 72 hrs post-infection by qRT-PCR analysis. Conditions: Severe acute respiratory syndrome coronavirus 2. It is filed as functional, organism-based.

The source made the active and inactive calls. No cut-off for these calls is given here.

For `C=C(C)[C@@H]1CCC(C)=C[C@H]1c1c(O)cc(CCCCC)c(C(=O)OC)c1O`, the outcome in the assay on SARS-CoV-2 [1], in the assay with SARS-CoV-2 [2], in the assay on SARS-CoV-2 [7], with SARS-CoV-2 [12], with SARS-CoV-2 [13] and in the assay on SARS-CoV-2 [14] was Active. The outcome with SARS-CoV-2 [16], in the assay on SARS-CoV-2 [18], with SARS-CoV-2 [19], in the assay on SARS-CoV-2 [21], in the assay with SARS-CoV-2 [23] and in the assay with SARS-CoV-2 [24] was Active. Also, the inhibition at 37.5 µM with SARS-CoV-2 [3], in the assay with SARS-CoV-2 [6], in the assay on SARS-CoV-2 [9], in the assay on SARS-CoV-2 [11], with SARS-CoV-2 [15] and in the assay on SARS-CoV-2 [22] was over 90% in each case. For the same compound, the IC50 (commonly the point on the concentration scale where inhibition reaches its midpoint) in the assay on SARS-CoV-2 [4] was 15.5 µM; in the assay on SARS-CoV-2 [5], 16.6 µM; in the assay on SARS-CoV-2 [8], 18.6 µM; with SARS-CoV-2 [10], 15.9 µM; with SARS-CoV-2 [17], 19 µM; in the assay with SARS-CoV-2 [20], 18.6 µM.
